Laboratory results as given in patent US20220306695A1, “COMPSTATIN ANALOGUES AND THEIR MEDICAL USES” (priority 2019, published 2022).
Read-outs that look alike come from different tables or passages of the source. One block for each molecule: values may come before it. Starred links: 1 amine or outer side, 2 acyl side, 3 side chain; linkers in the order of their positions; H or OH if unused. Positions of bridges follow the written chain, without caps; N, C: chain ends. Non-standard residues stand in square brackets, D forms with d. Residues, ends and D or L forms follow the SMILES beside them. Groups on a side chain read outwards from the residue. *: point of attachment. Trp(1-Me) = Cn1cc(C[C@H](N)C(=O)O)c2ccccc21; C18 diacid = O=C(O)CCCCCCCCCCCCCCCCC(=O)*; C16 diacid = O=C(O)CCCCCCCCCCCCCCC(=O)*; γGlu = O=C(O)[C@H](CCC(=O)[*:2])N[*:1]; AEEA = NCCOCCOCC(=O)O; Sar = CNCC(=O)O

Experiments:
[1] = assay type: physicochemical; conditions: 50 mg/mL peptide
Description: Chemical stability of compstatin analogues with cystathionine or disulfide bridge. Stability was assessed in three formulations at 50 mg/mL peptide, F1:20 mM phosphate pH 5.5, F2:20 mM phosphate pH 6.5 and F3:20 mM phosphate pH 7.5. The formulations were prepared by direct dissolution of peptide from lyophilized portions in the respective formulations. pH was adjusted to target with 1 M NaOH and 1 M HCl. Chemical stability was assessed under accelerated conditions (14 days, 40° C.) and evaluated as change in purity by reverse phase HPLC, and change in covalent oligomer content by denaturing SEC. The formulations were placed at 40° C. with analysis points at T=0, 7 and 14 days. On each time point a small volume was extracted and diluted to 2 mg/mL and tested by reverse phase HPLC and denaturing SEC. Purity was assessed by reverse phase HPLC using an Ultimate 3000 system for binary gradient application equipped with a Kinetix C18 column (cat. no. 00F-4462-Y0, 150 mm×3 mm, 2.6 μm) run at 0.5 ml/min with a gradient of buffer A (0.3% TFA, aq.) and buffer B (0.3% TFA, 90% MeCN, aq.) gradient from 40% B to 70% B over 20 min. Detection was done using a diode array detector set to 220 nm. Covalent oligomer formation was assessed by denaturing SEC (size exclusion chromatography) using an Ultimate 3000 system equipped with a TSKgel SuperSW 2000 column (cat. no. 818674, 300 mm×3 mm, 4 μm) run at 0.5 ml/min with isocratic flow of buffer A (0.1% TFA, 45% MeCN, aq.), 10 min. Detection was done using a diode array detector set to 215 nm. Compounds 126 and 156 were carefully weighed out and dissolved in formulations F1, F2 and F3 to a target concentration of 50 mg/mL. Once visually dissolved, concentration was confirmed by absorbance at 280 nm, and samples were placed in stability at 40° C. Samples for analysis were extracted on T=0, 7 and 14 days from a 40° C. climate chamber. The extracted volume was dissolved 1:25 (final concentration: 2 mg/mL) in 20 mM phosphate pH 5.5, 6.5 or 7.5 and measured by reverse phase HPLC and denaturing SEC by injection of 0.4 μL (column load […]). The resulting chromatograms were integrated to determine chemical purity by reverse phase HPLC and covalent oligomer content by denaturing SEC.

[2] = system: classical complement pathway; test: In vitro haemolysis assay (inhibition of classical complement pathway); assay type: cell-based, human; conditions: Table 3; human serum, sensitized sheep red blood cells; read-out: IC50[nM], in vitro analysis of inhibition of hemolysis
Procedure, shortened: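 Serially diluted compound (9 points) was preincubated 15 min at room temperature with diluted human serum, titrated per batch to give 70-90% maximal haemolysis, in Tris/casein buffer pH 7.4 with Mg2+/Ca2+. Antibody-sensitized sheep erythrocytes were then added for 30 min at 37° C, and the reaction was stopped with EDTA. Haemolysis was read at A405, with IC50 from 4PL fit.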

Human C3 = Human C3 (human, UniProt P01024 23-1663); test: cell-based or functional assay
Chain of Human C3 (P01024 23-1663 limits assumed): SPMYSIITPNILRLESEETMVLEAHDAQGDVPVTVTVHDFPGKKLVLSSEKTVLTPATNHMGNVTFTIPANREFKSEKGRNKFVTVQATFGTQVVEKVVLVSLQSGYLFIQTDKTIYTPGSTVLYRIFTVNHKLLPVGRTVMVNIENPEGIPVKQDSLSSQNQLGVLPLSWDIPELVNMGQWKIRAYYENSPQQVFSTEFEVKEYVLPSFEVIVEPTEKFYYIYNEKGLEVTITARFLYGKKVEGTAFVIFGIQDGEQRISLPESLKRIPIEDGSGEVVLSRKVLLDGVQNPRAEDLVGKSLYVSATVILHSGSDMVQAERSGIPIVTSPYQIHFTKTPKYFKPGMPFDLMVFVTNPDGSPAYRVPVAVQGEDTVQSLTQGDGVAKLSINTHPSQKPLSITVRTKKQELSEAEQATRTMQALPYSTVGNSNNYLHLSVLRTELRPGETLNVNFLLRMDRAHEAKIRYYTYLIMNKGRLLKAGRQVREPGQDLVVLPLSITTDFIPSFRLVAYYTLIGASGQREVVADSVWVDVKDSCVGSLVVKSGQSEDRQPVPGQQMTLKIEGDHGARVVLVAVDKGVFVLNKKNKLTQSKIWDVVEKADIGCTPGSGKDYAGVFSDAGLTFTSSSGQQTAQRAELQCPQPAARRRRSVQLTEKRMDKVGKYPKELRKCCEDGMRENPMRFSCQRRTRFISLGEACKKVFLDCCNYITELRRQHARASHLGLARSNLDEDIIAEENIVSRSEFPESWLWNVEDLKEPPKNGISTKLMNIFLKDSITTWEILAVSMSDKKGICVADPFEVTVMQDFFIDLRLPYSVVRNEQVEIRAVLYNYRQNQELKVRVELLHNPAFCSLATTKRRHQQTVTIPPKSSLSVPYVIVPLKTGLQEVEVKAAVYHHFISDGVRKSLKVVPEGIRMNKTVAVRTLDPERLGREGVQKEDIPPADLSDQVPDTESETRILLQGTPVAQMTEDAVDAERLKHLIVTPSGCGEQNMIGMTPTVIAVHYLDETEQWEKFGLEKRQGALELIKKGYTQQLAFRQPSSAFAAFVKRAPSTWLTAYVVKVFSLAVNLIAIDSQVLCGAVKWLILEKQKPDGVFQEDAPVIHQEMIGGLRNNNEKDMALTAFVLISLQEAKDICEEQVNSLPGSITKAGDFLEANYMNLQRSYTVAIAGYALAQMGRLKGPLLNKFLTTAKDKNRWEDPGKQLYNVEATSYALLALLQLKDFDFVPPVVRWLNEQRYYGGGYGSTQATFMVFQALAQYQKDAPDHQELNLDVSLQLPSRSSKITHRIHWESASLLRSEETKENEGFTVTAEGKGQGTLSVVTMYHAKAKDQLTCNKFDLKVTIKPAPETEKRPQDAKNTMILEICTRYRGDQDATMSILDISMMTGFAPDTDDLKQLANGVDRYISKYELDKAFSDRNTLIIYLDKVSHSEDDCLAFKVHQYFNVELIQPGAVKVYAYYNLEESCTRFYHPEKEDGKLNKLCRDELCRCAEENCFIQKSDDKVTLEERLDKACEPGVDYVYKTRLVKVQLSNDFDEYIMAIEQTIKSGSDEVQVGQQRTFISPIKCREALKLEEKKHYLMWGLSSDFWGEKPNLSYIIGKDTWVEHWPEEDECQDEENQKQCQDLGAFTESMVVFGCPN

Covalent oligomer content after 14 days 40° C. (%), F1 ([1]; F1: 20 mM phosphate pH 5.5, denaturing SEC): 66% | Purity after 14 days 40° C. (%), F1 ([1]; F1: 20 mM phosphate pH 5.5, normalized purity (HPLC)): 45% | Covalent oligomer content after 14 days 40° C. (%), F2 ([1]; F2: 20 mM phosphate pH 6.5, denaturing SEC): 54% | Purity after 14 days 40° C. (%), F2 ([1]; F2: 20 mM phosphate pH 6.5, normalized purity (HPLC)): 47% | Covalent oligomer content after 14 days 40° C. (%), F2 ([1]; F3: 20 mM phosphate pH 7.5, denaturing SEC): 41% | Purity after 14 days 40° C. (%), F3 ([1]; F3: 20 mM phosphate pH 7.5, normalized purity (HPLC)): 57%
Molecule: CC[C@H](C)[C@@H]1NC(=O)[C@@H](NC(=O)[C@H](Cc2ccccc2)NC(=O)[C@H](CCC(=O)O)NC(=O)[C@H](CO)NC(C)=O)CSSC[C@@H](C(=O)N[C@H](C(=O)N[C@@H](CCC(=O)O)C(=O)NCC(=O)N[C@@H](CCC(=O)O)C(=O)NCCOCCOCC(=O)NCCOCCOCC(=O)N[C@@H](CCCCNC(=O)CC[C@H](NC(=O)CNC(=O)CC[C@H](NC(=O)CCCCCCCCCCCCCCCCC(=O)O)C(=O)O)C(=O)O)C(N)=O)[C@@H](C)O)NC(=O)[C@H](CCCNC(=N)N)NC(=O)[C@H](Cc2c[nH]cn2)NC(=O)[C@H](CCC(=O)O)NC(=O)CNC(=O)[C@H](Cc2c[nH]c3ccccc23)NC(=O)[C@H](CC(=O)O)NC(=O)[C@H](CCC(N)=O)NC(=O)[C@H](Cc2cn(C)c3ccccc23)NC1=O [Compound 126] (Ac-SEFCI[Trp(1-Me)]QDWGEHRCTEGE[AEEA][AEEA]K([γGlu-Gly-γGlu-C18 diacid])-NH2; disulfide 4-14)
IC50 [2]: < 100 nM

B1: Compound 100 (peptide)
peptide: Ac-K([AEEA-AEEA-γGlu-C16 diacid])GSAICIWQDWGEHRCTEGE-NH2
modifications: disulfide 6-16
SMILES: CC[C@H](C)[C@H](NC(=O)[C@H](C)NC(=O)[C@H](CO)NC(=O)CNC(=O)[C@H](CCCCNC(=O)COCCOCCNC(=O)COCCOCCNC(=O)CC[C@H](NC(=O)CCCCCCCCCCCCCCC(=O)O)C(=O)O)NC(C)=O)C(=O)N[C@H]1CSSC[C@@H](C(=O)N[C@H](C(=O)N[C@@H](CCC(=O)O)C(=O)NCC(=O)N[C@@H](CCC(=O)O)C(N)=O)[C@@H](C)O)NC(=O)[C@H](CCCNC(=N)N)NC(=O)[C@H](Cc2c[nH]cn2)NC(=O)[C@H](CCC(=O)O)NC(=O)CNC(=O)[C@H](Cc2c[nH]c3ccccc23)NC(=O)[C@H](CC(=O)O)NC(=O)[C@H](CCC(N)=O)NC(=O)[C@H](Cc2c[nH]c3ccccc23)NC(=O)[C@H]([C@@H](C)CC)NC1=O
IC50[nM], inhibition of hemolysis (Human C3): < 500 nM

B2: Compound 108 (peptide)
peptide: {C18 diacid}-EGSEYCI[Trp(1-Me)]QDWGEHRC[Sar]E-NH2
modifications: disulfide 6-16
SMILES: CC[C@H](C)[C@@H]1NC(=O)[C@@H](NC(=O)[C@H](Cc2ccc(O)cc2)NC(=O)[C@H](CCC(=O)O)NC(=O)[C@H](CO)NC(=O)CNC(=O)[C@H](CCC(=O)O)NC(=O)CCCCCCCCCCCCCCCCC(=O)O)CSSC[C@@H](C(=O)N(C)CC(=O)N[C@@H](CCC(=O)O)C(N)=O)NC(=O)[C@H](CCCNC(=N)N)NC(=O)[C@H](Cc2c[nH]cn2)NC(=O)[C@H](CCC(=O)O)NC(=O)CNC(=O)[C@H](Cc2c[nH]c3ccccc23)NC(=O)[C@H](CC(=O)O)NC(=O)[C@H](CCC(N)=O)NC(=O)[C@H](Cc2cn(C)c3ccccc23)NC1=O
IC50[nM], inhibition of hemolysis (Human C3): < 500 nM

B3: Compound 103 (peptide)
peptide: Ac-EGSAYCI[Trp(1-Me)]QDWGEHK([AEEA-AEEA-γGlu-C16 diacid])C[Sar]E-NH2
modifications: disulfide 6-16
SMILES: CC[C@H](C)[C@@H]1NC(=O)[C@@H](NC(=O)[C@H](Cc2ccc(O)cc2)NC(=O)[C@H](C)NC(=O)[C@H](CO)NC(=O)CNC(=O)[C@H](CCC(=O)O)NC(C)=O)CSSC[C@@H](C(=O)N(C)CC(=O)N[C@@H](CCC(=O)O)C(N)=O)NC(=O)[C@H](CCCCNC(=O)COCCOCCNC(=O)COCCOCCNC(=O)CC[C@H](NC(=O)CCCCCCCCCCCCCCC(=O)O)C(=O)O)NC(=O)[C@H](Cc2c[nH]cn2)NC(=O)[C@H](CCC(=O)O)NC(=O)CNC(=O)[C@H](Cc2c[nH]c3ccccc23)NC(=O)[C@H](CC(=O)O)NC(=O)[C@H](CCC(N)=O)NC(=O)[C@H](Cc2cn(C)c3ccccc23)NC1=O
IC50[nM], inhibition of hemolysis (Human C3): < 100 nM

B4: Compound 109 (peptide)
peptide: Ac-EGSAYCI[Trp(1-Me)]QDWGEHRC[Sar]EGEK([γGlu-Gly-γGlu-C18 diacid])-NH2
modifications: disulfide 6-16
SMILES: CC[C@H](C)[C@@H]1NC(=O)[C@@H](NC(=O)[C@H](Cc2ccc(O)cc2)NC(=O)[C@H](C)NC(=O)[C@H](CO)NC(=O)CNC(=O)[C@H](CCC(=O)O)NC(C)=O)CSSC[C@@H](C(=O)N(C)CC(=O)N[C@@H](CCC(=O)O)C(=O)NCC(=O)N[C@@H](CCC(=O)O)C(=O)N[C@@H](CCCCNC(=O)CC[C@H](NC(=O)CNC(=O)CC[C@H](NC(=O)CCCCCCCCCCCCCCCCC(=O)O)C(=O)O)C(=O)O)C(N)=O)NC(=O)[C@H](CCCNC(=N)N)NC(=O)[C@H](Cc2c[nH]cn2)NC(=O)[C@H](CCC(=O)O)NC(=O)CNC(=O)[C@H](Cc2c[nH]c3ccccc23)NC(=O)[C@H](CC(=O)O)NC(=O)[C@H](CCC(N)=O)NC(=O)[C@H](Cc2cn(C)c3ccccc23)NC1=O
IC50[nM], inhibition of hemolysis (Human C3): < 250 nM

B5: Compound 110 (peptide)
peptide: Ac-EGSAYCI[Trp(1-Me)]QDWGEHRC[Sar]EGKK([γGlu-Gly-γGlu-C18 diacid])-NH2
modifications: disulfide 6-16
SMILES: CC[C@H](C)[C@@H]1NC(=O)[C@@H](NC(=O)[C@H](Cc2ccc(O)cc2)NC(=O)[C@H](C)NC(=O)[C@H](CO)NC(=O)CNC(=O)[C@H](CCC(=O)O)NC(C)=O)CSSC[C@@H](C(=O)N(C)CC(=O)N[C@@H](CCC(=O)O)C(=O)NCC(=O)N[C@@H](CCCCN)C(=O)N[C@@H](CCCCNC(=O)CC[C@H](NC(=O)CNC(=O)CC[C@H](NC(=O)CCCCCCCCCCCCCCCCC(=O)O)C(=O)O)C(=O)O)C(N)=O)NC(=O)[C@H](CCCNC(=N)N)NC(=O)[C@H](Cc2c[nH]cn2)NC(=O)[C@H](CCC(=O)O)NC(=O)CNC(=O)[C@H](Cc2c[nH]c3ccccc23)NC(=O)[C@H](CC(=O)O)NC(=O)[C@H](CCC(N)=O)NC(=O)[C@H](Cc2cn(C)c3ccccc23)NC1=O
IC50[nM], inhibition of hemolysis (Human C3): < 250 nM

Molecule: Ac-SAYCI[Trp(1-Me)]QDWGEHRC[Sar]EK([γGlu-Gly-Lys-γGlu-C18 diacid])-NH2 (disulfide 4-14) [Compound 105]
IC50[nM], inhibition of hemolysis (Human C3): < 100 nM

B6: Compound 112 (peptide)
peptide: Ac-SEYCI[Trp(1-Me)]QDWGEHRC[Sar]EGAK([γGlu-Gly-γGlu-C18 diacid])-NH2
modifications: disulfide 4-14
SMILES: CC[C@H](C)[C@@H]1NC(=O)[C@@H](NC(=O)[C@H](Cc2ccc(O)cc2)NC(=O)[C@H](CCC(=O)O)NC(=O)[C@H](CO)NC(C)=O)CSSC[C@@H](C(=O)N(C)CC(=O)N[C@@H](CCC(=O)O)C(=O)NCC(=O)N[C@@H](C)C(=O)N[C@@H](CCCCNC(=O)CC[C@H](NC(=O)CNC(=O)CC[C@H](NC(=O)CCCCCCCCCCCCCCCCC(=O)O)C(=O)O)C(=O)O)C(N)=O)NC(=O)[C@H](CCCNC(=N)N)NC(=O)[C@H](Cc2c[nH]cn2)NC(=O)[C@H](CCC(=O)O)NC(=O)CNC(=O)[C@H](Cc2c[nH]c3ccccc23)NC(=O)[C@H](CC(=O)O)NC(=O)[C@H](CCC(N)=O)NC(=O)[C@H](Cc2cn(C)c3ccccc23)NC1=O
IC50[nM], inhibition of hemolysis (Human C3): < 500 nM
